Laboratory results: patent publication US11198696B2, “Substituted xanthines as inhibitors of transient receptor potential cation channel subfamily c, member 5 activity” (Boehringer Ingelheim International GmbH, priority 2018, dated 2021)

The molecules below were run against T1, TRPC5 (Homo sapiens, UniProt Q9UL62) (assay: Assay A: Determination of TRPC5-Inhibition (whole-cell patch clamp)). Details: closest prior art compounds of WO2014/143799, TRPC5-expressing HEK293 TREx cells, LaCl3-activated current.
T1 construct: expressed in transfected cells; host or cells: HEK293 TREx cells, inducible TRPC5 expression, induced 20-48 hours
T1 sequence (Q9UL62 1-973): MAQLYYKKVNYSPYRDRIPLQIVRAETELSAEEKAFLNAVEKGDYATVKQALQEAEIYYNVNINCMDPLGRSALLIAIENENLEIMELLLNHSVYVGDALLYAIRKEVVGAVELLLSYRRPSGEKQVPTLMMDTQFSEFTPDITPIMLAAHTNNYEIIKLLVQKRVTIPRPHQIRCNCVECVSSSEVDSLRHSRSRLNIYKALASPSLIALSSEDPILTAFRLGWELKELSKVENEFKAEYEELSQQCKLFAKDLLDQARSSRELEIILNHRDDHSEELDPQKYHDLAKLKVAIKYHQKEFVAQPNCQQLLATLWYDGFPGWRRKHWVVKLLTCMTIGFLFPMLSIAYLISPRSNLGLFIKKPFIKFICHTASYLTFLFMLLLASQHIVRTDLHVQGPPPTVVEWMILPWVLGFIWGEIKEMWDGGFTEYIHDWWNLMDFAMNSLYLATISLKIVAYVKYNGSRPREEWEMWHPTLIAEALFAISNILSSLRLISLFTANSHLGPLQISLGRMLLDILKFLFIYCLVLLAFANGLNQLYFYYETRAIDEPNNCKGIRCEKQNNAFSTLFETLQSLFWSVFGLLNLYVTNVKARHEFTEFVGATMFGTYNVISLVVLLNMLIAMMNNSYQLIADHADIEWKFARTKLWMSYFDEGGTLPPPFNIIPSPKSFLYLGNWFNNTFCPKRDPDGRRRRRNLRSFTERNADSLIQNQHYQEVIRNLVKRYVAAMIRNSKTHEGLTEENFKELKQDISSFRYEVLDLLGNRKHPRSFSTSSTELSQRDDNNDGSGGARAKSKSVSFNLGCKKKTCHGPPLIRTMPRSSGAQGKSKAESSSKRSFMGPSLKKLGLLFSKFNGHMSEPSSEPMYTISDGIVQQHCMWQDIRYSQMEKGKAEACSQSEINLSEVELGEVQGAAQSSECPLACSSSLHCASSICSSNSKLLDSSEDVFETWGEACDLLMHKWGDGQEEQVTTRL
Type: cell-based
Excerpt: Assay A: Determination of TRPC5-Inhibition
Patch clamp experiments permit the detection of currents through the TRPC5 channel in a cell line. In normal whole-cell patch clamp recordings, a glass electrode is brought into contact with a single cell and a high-resistance (gigaohm) seal is established with the cell membrane. The membrane is then ruptured to achieve the whole-cell configuration, permitting control of the voltage of the cell membrane and measurement of currents flowing across the membrane using the amplifier attached to the electrode and resulting in the replacement of cytoplasm with the pipette solution. A perfusion system permits control of the extracellular solution, including the addition of blockers and activators of the current. The current can be activated by including 1.4 μM free Ca2+ in the pipette (intracellular) solution, and 80 μM LaCl3 in the extracellular solution.
TRPC5 cells were induced 20-48 hours, removed from growth plates, and replated at low density (to attain good single-cell physical separation) on glass coverslips for measurement. In some cases, cells were grown in low density overnight on glass coverslips. Patch clamp recordings were made in the whole-cell mode with a holding potential of −40 mV. Every 5 seconds, a voltage ramp was applied from −120 to +100 mV, 400 ms in duration. Currents elicited were quantified at −80 mV and +80 mV. The internal solution consisted of 140 mM cesium aspartate, 10 mM HEDTA, 2 mM CaCl2, 2.27 mM MgCl2 and 10 mM HEPES, pH 7.2, with 1,400 nM calculated free Ca2+. The external solution consisted of 150 mM NaCl, 4.5 mM 15 KCl, 1 mM MgCl2, 2 mM CaCl2, 10 mM HEPES, 10 mM glucose, 1 mM EGTA, pH 7.4. Upon addition of LaCl3, TRPC5 current was induced only in TRPC5-expressing cells and not in parental HEK293 TREx cells. Removal of the LaCh stimulus causes most of the current to go away. Potential blockers were tested for ability to block both inward and outward currents in the continued presence of LaCl3.
IC50 of a compound of the invention was estimated by testing the compound 500 nM. […] Compounds blocking 50% or more at 500 nM are retested at multiple concentrations, and the % block is fitted by standard equations to determine IC50 accurately, using a 5/6 point concentration-response experiment.
An IC50 of 324 nM was found for `COc1ccc(-c2nc3c(c(=O)n(CCCO)c(=O)n3C)n2Cc2ccccc2)cc1` [Example 441 in WO2014/143799, reference compound] in this work.

Same assay, conditions: compounds of the present invention, TRPC5-expressing HEK293 TREx cells, LaCl3-activated current
An IC50 of 2.16 nM was found for `CCn1c(=O)n(CCCO)c(=O)c2c1nc(-c1ccc(OC3CCC3)nc1)n2Cc1ccc(C)cc1` [Example 55] in this work. An IC50 of 0.688 nM was found for `CCn1c(=O)n(CCCO)c(=O)c2c1nc(-c1ccc(OC3CCC3C)nc1C)n2Cc1ccc(F)cc1` (stereo not shown) [Example 41] in this work. An IC50 of 0.402 nM was found for `CCn1c(=O)n(CCCO)c(=O)c2c1nc(-c1ccc(O[C@H]3C[C@@H](C)C3)nc1C)n2Cc1ccccc1` [Example 27] in this work. An IC50 of 0.551 nM was found for `CCn1c(=O)n(CCCO)c(=O)c2c1nc(-c1ccc(OC3CCC3)nc1C)n2Cc1ccc(Cl)cc1` [Example 36] in this work. An IC50 of 0.431 nM was found for `CCn1c(=O)n(CCCO)c(=O)c2c1nc(-c1ccc(OC3CCC3(C)C)nc1C)n2Cc1ccccc1` (stereo not shown) [Example 31] in this work. An IC50 of 0.743 nM was found for `CCn1c(=O)n(CCCO)c(=O)c2c1nc(-c1ccc(OC3CCCC3)nc1C)n2Cc1ccc(F)cc1` [Example 44] in this work. An IC50 of 0.917 nM was found for `CCn1c(=O)n(CCCO)c(=O)c2c1nc(-c1ccc(O[C@H]3C[C@H](C)C3)nc1C)n2Cc1ccccc1` [Example 28] in this work. An IC50 of less than 0.1 nM was found for `Cc1nc(OC2CCCC2)ccc1-c1nc2c(c(=O)n(CCCO)c(=O)n2C(C)C)n1Cc1ccc(F)cc1` [Example 4] in this work. An IC50 of 2.64 nM was found for `CCn1c(=O)n(CCCO)c(=O)c2c1nc(-c1ccc(OC3CCC3)nc1)n2Cc1ccc(F)c(F)c1` [Example 56] in this work. An IC50 of 0.246 nM was found for `CCC(C)n1c(=O)n(CCCO)c(=O)c2c1nc(-c1ccc(OC3CC(C)C3)nc1C)n2Cc1ccccc1` (stereo not shown) [Example 20] in this work. An IC50 of 0.15 nM was found for `CCn1c(=O)n(CCCO)c(=O)c2c1nc(-c1ccc(OC3CCC3C)nc1C(F)(F)F)n2Cc1ccc(Cl)cc1` (stereo not shown) [Example 10] in this work. An IC50 of less than 0.1 nM was found for `Cc1nc(OC2CCC23CCC3)ccc1-c1nc2c(c(=O)n(CCCO)c(=O)n2C(C)C)n1Cc1ccccc1` (stereo not shown) [Example 6] in this work. An IC50 of 0.477 nM was found for `Cc1nc(OC2CCC2)ccc1-c1nc2c(c(=O)n(CCCO)c(=O)n2C(C)C)n1Cc1ccc(F)cc1` [Example 33] in this work. An IC50 of 0.403 nM was found for `CCn1c(=O)n(CCCO)c(=O)c2c1nc(-c1ccc(OC3CCCCC3)nc1C)n2Cc1ccc(F)cc1` [Example 29] in this work. An IC50 of 0.174 nM was found for `CCn1c(=O)n(CCCO)c(=O)c2c1nc(-c1cc(F)c(OC3CCC3)nc1C)n2Cc1ccc(F)cc1` [Example 13] in this work.
